Experimental data: patent publication US20110294698A1, “PROCESS FOR IDENTIFYING DRUGS FOR TREATING GASTROESOPHAGEAL REFLUX” (Temple University of the Commonwealth System of Higher …, priority 2008, published 2011)
Entries after “also recorded” stand apart in the source; their conditions may differ. Read-outs that look alike come from different tables or passages of the source.

Legend:
human clasp fibers [1] = experiment: carbachol induced contraction and relaxation of muscle strips, with potential inhibitors of relaxation; type: cell-based; conditions: for inhibition of carbachol induced relaxation: mecamylamine 10 μM, hexamethonium 100 μM, L-NAME 50 μM
human sling fibers [2] = experiment: nicotine or choline induced relaxation of bethanechol pre-contracted muscle strips; type: cell-based
human LEC fibers [3] = experiment: carbachol induced contraction and relaxation of muscle strips, with potential inhibitors of relaxation; type: cell-based; conditions: for inhibition of carbachol induced relaxation: mecamylamine 10 μM, hexamethonium 100 μM, L-NAME 50 μM
pig clasp fibers = type: cell-based
[4] = system: gastroesophageal junction high-pressure zone; set-up: species or system human; conditions: in vivo, iv
[5] = system: gastroesophageal junction high-pressure zone; conditions: in vivo; cited from earlier work
human sling fibers [6] = experiment: bethanechol induced contraction of muscle strips, with or without antagonist (Schild analysis); type: cell-based
M3 receptor = M3 receptor (Homo sapiens, UniProt P20309); conditions: cited from earlier work
M2 receptor = target: T1, M2 receptor (Homo sapiens, UniProt P08172); conditions: published value; cited from earlier work
T1 sequence (P08172 1-466): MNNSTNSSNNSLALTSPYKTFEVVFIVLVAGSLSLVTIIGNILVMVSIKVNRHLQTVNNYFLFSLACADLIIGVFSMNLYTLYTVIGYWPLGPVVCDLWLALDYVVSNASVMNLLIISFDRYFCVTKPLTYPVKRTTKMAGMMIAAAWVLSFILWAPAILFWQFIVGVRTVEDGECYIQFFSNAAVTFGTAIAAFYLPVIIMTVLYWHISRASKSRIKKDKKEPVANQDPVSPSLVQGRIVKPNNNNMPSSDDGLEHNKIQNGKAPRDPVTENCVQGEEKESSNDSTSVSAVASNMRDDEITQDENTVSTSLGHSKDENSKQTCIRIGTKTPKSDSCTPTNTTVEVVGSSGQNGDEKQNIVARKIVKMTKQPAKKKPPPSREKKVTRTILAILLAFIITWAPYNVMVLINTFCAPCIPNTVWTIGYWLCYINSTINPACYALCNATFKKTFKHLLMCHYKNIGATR

human clasp fibers [7] = experiment: bethanechol induced contraction of muscle strips, with or without antagonist (Schild analysis); type: cell-based
human MEC fibers [8] = experiment: as above; type: cell-based
human MEL fibers [9] = experiment: as above; type: cell-based
human LEC fibers [10] = experiment: as above; type: cell-based
human MEL fibers [11] = experiment: carbachol cumulative concentration response of muscle strips; type: cell-based
Text: (§1) Beginning at the cardiac notch, the sling fiber complex was separated from the underlying submucosa by sharp dissection and this tissue plane was followed completely around the lesser curvature thus separating the clasp fibers from underlying submucosa. The clasp fiber complex was removed from the sling fiber complex by sharp dissection and cut into 10-12 smooth muscle strips approximately 3×3×8 mm with the long axis parallel to the direction of the muscle fibers. Similar muscle strips were cut from the middle of the sling fiber complex such that these strips were derived from the sling fibers in the cardiac notch. These smooth muscle strips were suspended in 10 ml muscle baths between platinum electrodes in Tyrode's solution continuously bubbled with 95% O2/5% CO2 and maintained at 37° C. The muscle strips were stretched to approximately 150% of their slack length which produced approximately 1 gram of basal tension and were then allowed to accommodate to the muscle bath for at least 60 minutes prior to investigation of contractile response.
(§2) Representative traces of the contractile response to 120 mM KCl in isotonic Tyrode's solution followed by a wash and 60 minute re-equilibration period then a cumulative concentration response curve to the selective muscarinic receptor agonist bethanechol (left) or the muscarinic and nicotinic agonist carbachol (right) is shown in FIG. 11. […]

human MEC fibers [12] = experiment: as above; type: cell-based
Text: as §1, §2

human sling fibers [13] = experiment: carbachol induced contraction and relaxation of muscle strips, with potential inhibitors of relaxation; type: cell-based; conditions: for inhibition of carbachol induced relaxation: mecamylamine 10 μM, hexamethonium 100 μM
human clasp fibers [14] = experiment: nicotine or choline induced relaxation of bethanechol pre-contracted muscle strips; type: cell-based
human LEC fibers [15] = experiment: as above; type: cell-based
[16] = inhibitor 30 min, then carbachol rechallenge, others as in Table 6
[17] = mean ± SEM, read-out: BETH pEC50 (bethanechol potency) (converted)
[18] = cumulative concentration response
[19] = Barrett's esophagitis donors vs no GERD history

M3 receptor, sequence (P20309 whole entry): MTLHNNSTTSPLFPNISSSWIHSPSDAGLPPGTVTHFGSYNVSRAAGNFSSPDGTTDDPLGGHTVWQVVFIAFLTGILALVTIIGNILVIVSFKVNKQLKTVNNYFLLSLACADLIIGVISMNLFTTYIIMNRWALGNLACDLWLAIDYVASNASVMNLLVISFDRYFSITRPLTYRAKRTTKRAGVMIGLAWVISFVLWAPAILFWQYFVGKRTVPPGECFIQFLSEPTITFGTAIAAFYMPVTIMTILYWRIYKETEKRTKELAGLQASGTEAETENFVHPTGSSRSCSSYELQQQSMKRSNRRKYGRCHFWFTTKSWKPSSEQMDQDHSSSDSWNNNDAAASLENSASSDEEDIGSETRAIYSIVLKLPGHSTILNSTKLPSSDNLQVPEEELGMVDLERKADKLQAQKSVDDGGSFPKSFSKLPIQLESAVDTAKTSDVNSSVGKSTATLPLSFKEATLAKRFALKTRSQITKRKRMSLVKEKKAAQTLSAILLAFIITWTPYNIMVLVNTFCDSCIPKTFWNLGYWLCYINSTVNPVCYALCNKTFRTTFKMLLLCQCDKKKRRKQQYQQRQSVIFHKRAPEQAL

COC(=O)[C@@H](N)CCCNC(=N)N[N+](=O)[O-] [L-NAME]
inhibition of carbachol induced relaxation (human clasp fibers [1]; […], others as in Table 6): inhibited
inhibition of nicotine induced relaxation (human sling fibers [2]): inhibited
inhibition of carbachol induced relaxation (human LEC fibers [3]; […]): inhibited

CC[N+](CC)(CC)CCOc1ccc(/C=C/c2ccccc2)cc1 [MG624]
inhibition of carbachol induced relaxation (human clasp fibers [1]; [16]): blocked

CCCCCCCCCC[n+]1cccc([C@@H]2CCCN2C)c1.[I-] [NDNI]
inhibition of carbachol induced relaxation (human clasp fibers [1]; […], others as in Table 6): blocked

CC(=O)OCC[N+](C)(C)C [acetylcholine]
concentration above which abrupt relaxations were produced (pig clasp fibers; acetylcholine with physostigmine to block cholinesterase): higher than 30 uM

CN1[C@@H]2CC[C@H]1C[C@@H](OC(=O)C(CO)c1ccccc1)C2 (stereo partly drawn) [atropine]
effect on the pressure profile generated by placement of the plications [4]: abolished
effect on the resting sphincteric pressure [5]: dose-dependent partial suppression

CC(C[N+](C)(C)C)OC(N)=O (stereo not drawn) [bethanechol]
BETH MAX (maximal tension) (human sling fibers [6]; mean ± SEM): 2.18 ± 0.24 (n = 37) c d e
EC50 (human sling fibers [6]; [17]): 10.5 µM
KA (agonist dissociation constant) for M3 (M3 receptor; published value): 110 µM
KA (agonist dissociation constant) for M2 (M2 receptor): 170 µM
BETH MAX (maximal tension) (human clasp fibers [7]; mean ± SEM): 1.20 ± 0.17 (n = 14) b d
EC50 (human clasp fibers [7]; [17]): 1.58 µM
BETH MAX (maximal tension) (human MEC fibers [8]; mean ± SEM): 0.79 ± 0.07 (n = 24) e
EC50 (human MEC fibers [8]; [17]): 45.7 µM
BETH MAX (maximal tension) (human MEL fibers [9]; mean ± SEM): 1.37 ± 0.21 (n = 10)
EC50 (human MEL fibers [9]; [17]): 15.8 µM
BETH MAX (maximal tension) (human LEC fibers [10]; mean ± SEM): 0.92 ± 0.09 (n = 29)
EC50 (human LEC fibers [10]; [17]): 6.46 µM

C[N+](C)(C)CCOC(N)=O [carbachol]
abrupt relaxation response to high carbachol concentrations (human MEL fibers [11]): not observed
abrupt relaxation response to high carbachol concentrations (human MEC fibers [12]): not observed
carbachol induced relaxation, GERD compared to non-GERD controls (human sling fibers [13]): no difference
carbachol induced relaxations, definite GERD (human sling fibers [13]; carbachol higher than 100 μM): greater
carbachol concentration at which relaxation response is observed (human sling fibers [13]; [18]): ≥ 300 µM
relaxation response to high carbachol concentration as a percentage of the maximal contractile response (human sling fibers [13]; mean±sem): 29±4%
maximal carbachol induced contraction, donors with GERD compared to donors without GERD (human sling fibers [13]; p<0.05): greater
contractility to carbachol, definite and probable GERD (human sling fibers [13]; vs no GERD history): increased
maximal contractile response to carbachol, definite GERD (human clasp fibers [1]; [19]): decreased
carbachol induced relaxations, probable and definite GERD (human clasp fibers [1]; carbachol higher than 100 μM): decreased
concentration above which abrupt relaxations were produced (human clasp fibers [1]; increasing carbachol concentrations (Example 9)): higher than 30 uM
relaxation response to high carbachol concentration as a percentage of the maximal contractile response (human clasp fibers [1]; mean±sem): 131±6%
carbachol-induced relaxations with high concentrations of carbachol, donors with GERD compared to non-GERD controls (human clasp fibers [1]; p<0.05): significantly lower
maximal carbachol induced contraction, donors with GERD compared to non-GERD donors (human clasp fibers [1]; p<0.05): significantly lower
maximal contractile response to carbachol, definite GERD (human LEC fibers [3]; [19]): decreased
carbachol induced relaxations, probable and definite GERD (human LEC fibers [3]; carbachol higher than 100 μM): higher
carbachol concentration at which relaxation response is observed (human LEC fibers [3]; [18]): ≥ 300 µM
relaxation response to high carbachol concentration as a percentage of the maximal contractile response (human LEC fibers [3]; mean±sem): 54±9%

C[N+](C)(C)CCCCCCCCCC[N+](C)(C)C [decamethonium]
inhibition of carbachol induced relaxation (human sling fibers [13]; […], others as in Table 6): inhibit
inhibition of carbachol induced relaxation (human clasp fibers [1]; […], others as in Table 6): inhibited

C[N+](C)(C)CCCCCC[N+](C)(C)C [hexamethonium]
inhibition of carbachol induced relaxation (human sling fibers [13]; […], others as in Table 6): did not
inhibition of carbachol induced relaxation (human sling fibers [13]; […], others as in Table 6, listed as HEX): inhibit
inhibition of carbachol induced relaxation (human LEC fibers [3]; […]): did not

CNC1(C)C2CCC(C2)C1(C)C (stereo not drawn) [mecamylamine]
inhibition of carbachol induced relaxation (human sling fibers [13]; [16]): inhibited
inhibition of carbachol induced relaxation (human sling fibers [13]; inhibitor 30 min, then carbachol rechallenge, others as in Table 6, listed as MEC): inhibit
inhibition of nicotine induced relaxation (human clasp fibers [14]; human clasp fibers, 30 μM bethanechol then 1 mM nicotine, MLA 10 nM, MECA 10 μM): significantly inhibited
inhibition of nicotine induced relaxation (human LEC fibers [15]; human LEC fibers, 30 μM bethanechol then 1 mM nicotine, MLA 10 nM, MECA 10 μM): significantly inhibited
inhibition of carbachol induced relaxation (human clasp fibers [1]; [16]): inhibited; also recorded: blocked; also recorded: only partially effective
inhibition of nicotine induced relaxation (human sling fibers [2]; human sling fibers, 30 μM bethanechol then 1 mM nicotine, MLA 10 nM, MECA 10 μM): significantly inhibited
inhibition of carbachol induced relaxation (human LEC fibers [3]; inhibitor 30 min, then carbachol rechallenge): inhibited

COc1ccccc1CNCCCCCCNCCCCCCCCNCCCCCCNCc1ccccc1OC [methoctramine]
potency (pA2) to inhibit bethanechol induced contraction (human sling fibers [6]): 6.8±0.2
pKB M3 (M3 receptor; published affinity value): 6.6
potency (pA2) to inhibit bethanechol induced contraction (human clasp fibers [7]): 6.3±0.2
potency (pA2) to inhibit bethanechol induced contraction (human MEC fibers [8]): 5.7±0.2
potency (pA2) to inhibit bethanechol induced contraction (human MEL fibers [9]): 5.6±0.3
potency (pA2) to inhibit bethanechol induced contraction (human LEC fibers [10]): 6.2±0.2

CCN1C[C@]2(COC(=O)c3ccccc3N3C(=O)C[C@H](C)C3=O)CC[C@H](OC)[C@@]34[C@@H]5C[C@H]6[C@H](OC)[C@@H]5[C@](O)(C[C@@H]6OC)[C@@](O)([C@@H](OC)[C@H]23)[C@@H]14 [methyllycaconitine]
inhibition of nicotine induced relaxation (human clasp fibers [14]): no inhibitory effect
inhibition of nicotine induced relaxation (human LEC fibers [15]): no inhibitory effect
inhibition of carbachol induced relaxation (human clasp fibers [1]; […], others as in Table 6): did not
inhibition of carbachol induced relaxation (human clasp fibers [1]; […], others as in Table 6, listed as methyllycaconotine): ineffective
inhibition of nicotine induced relaxation (human sling fibers [2]): no inhibitory effect

CN1CCCC1c1cccnc1 (stereo not drawn) [nicotine]
nicotine induced relaxation of bethanechol pre-contracted fibers (human clasp fibers [14]; human clasp fibers): relax
nicotine induced relaxation of bethanechol pre-contracted fibers (human LEC fibers [15]; human LEC fibers): relax
nicotine induced relaxation of bethanechol pre-contracted fibers (human sling fibers [2]; human sling fibers, 30 μM bethanechol, 100 μM nicotine): relax; also recorded: induces a relaxation

CC(=O)O[C@H]1C[C@@H]2CC[C@@H]3[C@H](CC[C@@]4(C)[C@H]3C[C@H]([N+]3(C)CCCCC3)[C@@H]4OC(C)=O)[C@@]2(C)C[C@@H]1[N+]1(C)CCCCC1 [pancuronium]
inhibition of cholinergic agonist induced relaxation (pig clasp fibers; […], 1E−5 molar): inhibited

CC(C)NCC(O)COc1cccc2ccccc12 (stereo not drawn) [propranolol]
inhibition of nicotine induced relaxation (human sling fibers [2]; human sling fibers, 30 μM bethanechol then 100 μM nicotine, inhibitor 30 min): inhibited

NC1=N[C@H](O)[C@H]2[C@H]3O[C@]4(O)O[C@@H]([C@@H](O)[C@@]2(N1)[C@@H]4O)[C@]3(O)CO [tetrodotoxin]
inhibition of nicotine induced relaxation (human sling fibers [2]): reduced the relaxation but not completely

COc1cc2c3cc1Oc1cc(ccc1O)C[C@@H]1c4c(cc(OC)c(O)c4Oc4ccc(cc4)C[C@@H]3N(C)CC2)CC[N+]1(C)C [tubocurarine]
inhibition of carbachol induced relaxation (human sling fibers [13]; […], others as in Table 6): inhibit
inhibition of carbachol induced relaxation (human clasp fibers [1]; […], others as in Table 6): inhibited
